Key:
[1] = Thermodynamic solubility assay; type: physicochemical; details: aqueous buffer, thermodynamic from solid, PBS buffer pH 7.4, read-out: TSol
Description: Test compound (˜0.5 mg, accurately weighed) was suspended in PBS buffer pH 7.4 (Dulbecco A) to a concentration of 1 mg/mL in a high recovery glass vial in duplicate. The suspensions were shaken at 300 rpm at rt for 64 h. About 250 μL of suspension were then transferred to a MultiScreen® Solubility filter plate (Millipore) in duplicate. Concentrations of the filtrates were then quantified against a 5-point calibration curve in a mixture of acetonitrile/PBS buffer (top concentration […]). After filtration and matrix match, the calibration and assay plates were analysed on a Bioteck Synergy 4 plate reader (240-400 nm). Final concentration of the test compound in the filtrate was calculated using the slope of the calibration curve.

[2] = Caco-2 permeability assay; type: in vitro ADME; details: human, apical to basolateral (A:B), read-out: caco-2 Papp AB
Description: Caco-2 cells are commonly used as an in vitro model for the prediction of human intestinal absorption of test compounds. When cultured, Caco-2 cells (derived from a human colorectal carcinoma) spontaneously differentiate into monolayers of polarised enterocytes. The cells are seeded on multiwell-insert plates and form a confluent monolayer over 20 d before the assay. On day 20, compound was added to the apical side of the membrane and the flux of the compound across the monolayer was monitored over 2 h. All data was generated at Cyptotex.

USP19 [3] = target: T1, USP19 (Homo sapiens, UniProt O94966); experiment: Cellular target engagement using HTRF assay (USP19-Flag transfected cells); type: cell-based; details: HEK293T cells; read-out: HTRF TE IC50
T1 construct: expressed in transfected cells; host or cells: HEK293T
T1 sequence (O94966 1-1318): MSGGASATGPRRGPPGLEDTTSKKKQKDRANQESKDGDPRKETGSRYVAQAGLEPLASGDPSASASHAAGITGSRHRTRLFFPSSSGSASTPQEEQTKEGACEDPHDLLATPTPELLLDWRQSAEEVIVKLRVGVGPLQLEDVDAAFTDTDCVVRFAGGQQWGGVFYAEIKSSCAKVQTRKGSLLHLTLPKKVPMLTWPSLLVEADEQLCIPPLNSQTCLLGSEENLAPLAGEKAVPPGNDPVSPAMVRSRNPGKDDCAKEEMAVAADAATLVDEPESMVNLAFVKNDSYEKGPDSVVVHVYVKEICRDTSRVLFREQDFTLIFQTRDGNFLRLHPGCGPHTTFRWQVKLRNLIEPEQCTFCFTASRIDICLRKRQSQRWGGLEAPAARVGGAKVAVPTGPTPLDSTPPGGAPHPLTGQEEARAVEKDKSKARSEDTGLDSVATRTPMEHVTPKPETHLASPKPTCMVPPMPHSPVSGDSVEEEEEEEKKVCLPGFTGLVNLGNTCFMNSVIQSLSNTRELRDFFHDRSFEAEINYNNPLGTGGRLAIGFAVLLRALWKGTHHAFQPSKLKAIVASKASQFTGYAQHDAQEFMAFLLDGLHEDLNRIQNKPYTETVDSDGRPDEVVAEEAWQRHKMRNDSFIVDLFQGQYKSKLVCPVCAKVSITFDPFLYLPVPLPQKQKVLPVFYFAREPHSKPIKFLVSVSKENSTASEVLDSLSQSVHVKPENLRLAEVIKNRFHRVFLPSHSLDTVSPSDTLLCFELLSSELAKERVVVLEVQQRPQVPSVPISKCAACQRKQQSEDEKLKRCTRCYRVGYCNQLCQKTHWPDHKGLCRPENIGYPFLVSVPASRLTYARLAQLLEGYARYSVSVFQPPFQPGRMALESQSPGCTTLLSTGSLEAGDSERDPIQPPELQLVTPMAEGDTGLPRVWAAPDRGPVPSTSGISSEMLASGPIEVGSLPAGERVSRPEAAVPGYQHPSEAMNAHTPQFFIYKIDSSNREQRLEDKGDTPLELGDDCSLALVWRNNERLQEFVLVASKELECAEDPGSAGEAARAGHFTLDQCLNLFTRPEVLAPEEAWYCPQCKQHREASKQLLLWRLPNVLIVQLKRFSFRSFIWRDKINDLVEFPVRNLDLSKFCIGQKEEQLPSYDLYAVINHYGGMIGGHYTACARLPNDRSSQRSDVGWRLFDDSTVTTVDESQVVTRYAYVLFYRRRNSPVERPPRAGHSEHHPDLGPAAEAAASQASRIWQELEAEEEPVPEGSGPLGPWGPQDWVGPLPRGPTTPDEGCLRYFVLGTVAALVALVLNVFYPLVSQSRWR
Description: USP19 cellular target engagement was determined in a homogenous time resolved fluorescence (HTRF) assay using HA-tagged ubiquitin vinyl pentynyl sulfone (VPS) probe (UbiQ-193, UbiQ Bio) and a USP19-Flag overexpression construct. Inhibitors were stored as 10 mM DMSO stocks in an inert environment (low humidity, dark, low oxygen, rt) using the StoragePod® system (Roylan Developments). USP19-Flag transfected cells were incubated with serially diluted compound in an 11 point dose response curve (from 50 μM to 0.01 nM) for 2 h and then washed in PBS and lysed. Unless otherwise stated, all HTRF reagents were purchased from CisBio. HTRF assays using cell lysates were completed in 384 well plates (Greiner) in a 20 μL total volume. Cell lysates were incubated with HA-tagged ubiquitin VPS probe for 40 min in PPI detection buffer prior to addition of anti-HA and anti-FLAG HTRF detection reagents. HTRF was measured every 1 h for 18 h using a Pherastar FSX plate reader (excitation of 337 nm, emission of 620/665 nm). Data was normalised to DMSO (no compound controls) and fitted using IC50 values derived using Prism (GraphPad) using nonlinear regression curve fitting.

[4] = Kinetic solubility (KSol); type: physicochemical
In vivo mouse PK = details: C57BL/6N mice, IV 1 mg/kg
[5] = system: diet-induced obese (DIO) mouse; experiment: Diet-induced obesity (DIO) mouse model with OGTT; type: in vivo, Male C57BL6/J mice; details: 5 or 25 mg/kg i.p. BID
Description: To assess obesity and insulin resistance, a diet-induced obesity mouse model was used.
Male C57BL6/J mice were continuously provided with high-fat diet (D12451, 45% kcal as fat; Research Diets, New Jersey, USA) and filtered tap water ad libitum for the duration of the study. From day 0, mice were administered vehicle i.p. BID, USP19 inhibitor (ADC-141) i.p. BID at 5 mg/kg or 25 mg/kg, or positive control liraglutide 0.1 mg/kg s.c. BID.
Body weight was measured daily. On Day 13, body composition was be assessed by DEXA. On Day 15, fasting glucose and insulin levels were measured before and during an oral glucose tolerance test (OGTT) to assess improvements in glucose control. The OGTT was performed following an overnight fast. […] An OGTT was performed the following morning (approx. 16 h post fast). Mice were dosed with vehicle or test compound (starting at 08.45) to a timed schedule 30 minutes prior to the administration of the glucose challenge (2.0 g/kg po). Blood samples were taken immediately prior to dosing (B1), immediately prior to glucose administration (B2) and 15, 30, 60 and 120 minutes after glucose administration.

USP19 [6] = experiment: Cellular target engagement using western blotting (Ub-PA / Ub-VME probe); type: cell-based; details: breast cancer, neuroblastoma and mouse skeletal muscle cell lines
Description: Cells from a breast cancer cell line, a neuroblastoma cell line and a mouse skeletal muscle cell line were treated with a USP19 inhibitor compound (ADC-141) for 2 hrs, lysed (lysis buffer: 50 mM Tris pH 7.4; 150 mM NaCl; 5 mM MgCl2; 0.5 mM EDTA; 0.5% NP40; 10% Glycerol; 2 mM DTT) and Ubiquitin-propargylamine (Ub-PA; UbiQ) or Ubiquitin-vinyl methyl ester (Ub-VME; Almac Sciences Scotland Limited) was then added. Samples were analysed by western blotting probing for USP19 (EC50 determined by densitometry).

Full-length USP19 = target: T2, Full-length USP19 (Homo sapiens, UniProt O94966); experiment: USP19 fluorescence polarisation (FP) assay, Ubiquitin-Lys-TAMRA substrate; type: biochemical; details: fluorescence polarisation assay, qualitative
T2 construct: Full-length USP19 was purchased from Boston Biochem (E-576); purchased Boston Biochem E-576
T2 sequence (O94966 1-1318): T1 sequence (O94966 1-1318)
Outline: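 Fluorescence polarisation (excitation 530 nm, parallel and perpendicular emission at 575 nm) was recorded every 15 min for 90 min after adding the ubiquitin-Lys-TAMRA isopeptide (500 nM as dispensed). Beforehand, the full-length enzyme (2.5 nM as dispensed) sat 30 min at RT with compound diluted from 200 μM to 2 μM in HEPES pH 7.4 buffer with 150 mM NaCl, 5 mM DTT, 0.05% BSA and 0.05% CHAPS. Values normalised to uninhibited wells gave IC50s by non-linear fitting, each the mean of two or more duplicate runs.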

male C57bl/6 mice = experiment: Sciatic nerve denervation muscle wasting model; type: in vivo, mouse; details: 75 mg/kg IP twice daily
Description: To induce muscle wasting, a 1 cm segment of the sciatic nerve in the thigh was removed from mice (male C57bl/6 mice at 8-10 weeks of age; n=10 per group) under isoflurane anaesthesia and analgesia with carprofen. A sham operation was carried out in the opposite leg as a control.
Mice were randomised into Vehicle or Test groups, with all animals weighed to ensure a similar mean weight in each group. ADC-141, a USP19 inhibitory compound at 75 mg/kg or Vehicle was administered IP twice daily starting from the evening post-operation.
Mice were sacrificed 14 days later. Fat pads, liver, gastrocnemius and tibialis anterior muscles were harvested. Tissue mass were measured in both groups.

SMILES: O=C(N1CC[C@@H](Cn2ccc(-c3ccccc3)cc2=O)C2(CCCC2)C1)N1CCNC[C@H]1c1ccccc1
- solubility thermodynamic at 64 h [1]: 1 µM
- Papp A→B at 2 h [2]: 1 ×10⁻⁶ cm/s
- IC50 (USP19 [3]): 3000 nM

SMILES: C[C@H](CC(F)(F)F)C(=O)N1CC[C@@](O)(Cn2cnc(-c3ccccc3)cc2=O)C2(CCCC2)C1 [F 11 9 N W 11]
- KSol [4]: 1 µM

SMILES: N[C@@H]1CCN(C(=O)N2CC[C@@](O)(Cn3cnc(-c4ccccc4)cc3=O)C3(CCCC3)C2)[C@H](c2ccccc2)C1 [F 11 9 N W032, reference compound]
- solubility thermodynamic at 64 h [1]: 1 µM
- clearance (In vivo mouse PK): 3 mL/min/kg
- half-life (In vivo mouse PK; read-out: IV t1/2 (converted)): 120 min

SMILES: O=C(N1CC[C@@H](Cn2cnc(-c3ccccc3)cc2=O)C2(CCCC2)C1)N1CCNC[C@H]1c1ccccc1
- Papp A→B at 2 h [2]: 1 ×10⁻⁶ cm/s
- IC50 (USP19 [3]): 1000 nM

SMILES: C[C@H](CC1CCCCC1)C(=O)N1CC[C@@](O)(Cn2cc(C(=O)N3CCNCC3)c(-c3ccccc3)cc2=O)C2(CCCC2)C1 [ADC-141, 1-(((S)-7-((R)-3-cyclohexyl-2-methylpropanoyl)-10-hydroxy-7-azaspiro[4.5]decan-10-yl)methyl)-4-phenyl-5-(piperazine-1-carbonyl)pyridin-2(1H)-one]
- fat mass ([5]; DEXA Day 13): reduction in fat mass
- lean body mass ([5]; DEXA Day 13): preserved
- plasma glucose in OGTT ([5]; Day 15): decreased plasma glucose
- plasma insulin in OGTT ([5]; Day 15): decreased plasma insulin
- OGTT response ([5]; Day 15, glucose 2.0 g/kg po): dose-dependent improvement in OGTT response
- overall body weight gain ([5]; high-fat diet): reduction in overall body weight gain
- cumulative food intake ([5]; vs vehicle control): reduction in cumulative food intake
- cell permeability (USP19 [6]): good cell permeability
- EC50 determined by densitometry (USP19 [6]; 2 hrs treatment): low nanomolar
- USP19 inhibitory activity (Full-length USP19): shown to have USP19 inhibitory activity
- liver mass (male C57bl/6 mice; 2 weeks, vs vehicle): increase in liver mass
- mass of the epididymal fat pad (male C57bl/6 mice; 2 weeks, vs vehicle): significantly smaller fat pads
- muscle wasting in the gastrocnemius muscle (male C57bl/6 mice; 14 days, trend did not reach significance): reduced
- loss of muscle mass in the tibialis anterior muscle (male C57bl/6 mice; 14 days, vs vehicle): significantly lower loss of muscle mass

Reference: patent US20240327382A1 (ALMAC DISCOVERY LIMITED, priority 2021, published 2024)
